# Data as given in PMC4105021 (ChemMedChem, 2014).
# What was measured:
# [1] = tested on: human TLR2, TLR3, TLR4, TLR5, TLR7, TLR9, TLR10, Nod1 and Nod2; assay: counter-screen in reporter cell lines specific for other human TLRs and Nods; assay type: cell-based
# [2] = tested on: human peripheral blood mononuclear cells; assay type: cell-based; conditions: human PBMCs and whole human blood, Fig. 6
smiles,measurement,setting,value
"CCCCOc1cc2ccccc2nc1N [Compound 6, 3-butoxyquinolin-2-amine]",specificity in counter-screens,[1],specific for human TLR8
"CCCCNc1cc2ccccc2nc1N [Compound 9, N^3-butylquinoline-2,3-diamine]",specificity in counter-screens,[1],specific for human TLR8
"CCCCSc1cc2ccccc2nc1N [Compound 12, 3-(butylthio)quinolin-2-amine]",specificity in counter-screens,[1],specific for human TLR8
"CCCCCc1cc2ccccc2nc1N [Compound 14b, 3-pentylquinolin-2-amine]",cytokine/chemokine induction profile,[2],"induction of a specific set of chemokines and proinflammatory cytokines, including interleukins 12 and 18"
